Results published in ChEMBL document CHEMBL1201862, “PubChem BioAssay data set” (2004).
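Values below derive from 48-hour exposures of cells grown in 96-well plates, with endpoints linearly interpolated between the two concentrations bracketing the appropriate inhibition level. GI50 = concentration required for 50% inhibition of growth.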 Calls of active or inactive are those of the source. No stated cut-off is given here; in the data, active = GI50 up to about 1.1 µM and inactive = higher.

How the values were obtained:
Test in all cases: NCI tumour cell line growth inhibition, 48 h
K562 = tested on: K562
HCT-15 = tested on: HCT-15
OVCAR-4 = tested on: OVCAR-4
SF-295 = tested on: SF-295
786-0 = tested on: 786-0
KM12 = tested on: KM12
DU-145 = tested on: DU-145
SK-MEL-28 = tested on: SK-MEL-28
A549 = tested on: A549
MOLT-4 = tested on: MOLT-4
UACC-62 = tested on: UACC-62
SF-539 = tested on: SF-539
HOP-62 = tested on: HOP-62
SK-MEL-2 = tested on: SK-MEL-2
NCI-H522 = tested on: NCI-H522
BT-549 = tested on: BT-549
Hs-578T = tested on: Hs-578T
NCI-H460 = tested on: NCI-H460
MDA-MB-231 = tested on: MDA-MB-231
MDA-MB-435 = tested on: MDA-MB-435
NCI-H23 = tested on: NCI-H23
U-251 = tested on: U-251
LOX IMVI = tested on: LOX IMVI
A498 = tested on: A498
ACHN = tested on: ACHN
SF-268 = tested on: SF-268
SNB-19 = tested on: SNB-19
SK-OV-3 = tested on: SK-OV-3
PC-3 = tested on: PC-3
UACC-257 = tested on: UACC-257
SR = tested on: SR
OVCAR-3 = tested on: OVCAR-3
HCT-116 = tested on: HCT-116
CCRF-CEM = tested on: CCRF-CEM
SW-620 = tested on: SW-620
SNB-75 = tested on: SNB-75
T47D = tested on: T47D
OVCAR-5 = tested on: OVCAR-5
OVCAR-8 = tested on: OVCAR-8
MCF7 = tested on: MCF7
Malme-3M = tested on: Malme-3M
UO-31 = tested on: UO-31
SN12C = tested on: SN12C
TK-10 = tested on: TK-10
HL-60 = tested on: HL-60
IGROV-1 = tested on: IGROV-1
EKVX = tested on: EKVX
CAKI-1 = tested on: CAKI-1
HT-29 = tested on: HT-29
MDA-N = tested on: MDA-N
HCC 2998 = tested on: HCC 2998
COLO 205 = tested on: COLO 205
NCI/ADR-RES = tested on: NCI/ADR-RES
M14 = tested on: M14
NCI-H226 = tested on: NCI-H226
RPMI-8226 = tested on: RPMI-8226
SK-MEL-5 = tested on: SK-MEL-5
RXF 393 = tested on: RXF 393
HOP-92 = tested on: HOP-92

## COC(=O)c1ccccc1/C=C1\Cc2ccc3c(c2C1=O)CCCC3
K562
  GI50: > 100 µM (inactive)
HCT-15
  GI50: > 100 µM
OVCAR-4
  GI50: > 100 µM (inactive)
SF-295
  GI50: > 100 µM (inactive)
786-0
  GI50: > 100 µM (inactive)
KM12
  GI50: > 100 µM (inactive)
DU-145
  GI50: > 100 µM (inactive)
SK-MEL-28
  GI50: > 100 µM (inactive)
A549
  GI50: > 100 µM (inactive)
MOLT-4
  GI50: > 100 µM (inactive)
UACC-62
  GI50: > 100 µM (inactive)
SF-539
  GI50: > 100 µM (inactive)
HOP-62
  GI50: > 100 µM (inactive)
SK-MEL-2
  GI50: > 100 µM (inactive)
NCI-H522
  GI50: > 100 µM (inactive)
BT-549
  GI50: > 100 µM (inactive)
Hs-578T
  GI50: > 100 µM (inactive)
NCI-H460
  GI50: > 100 µM (inactive)
MDA-MB-231
  GI50: > 100 µM (inactive)
MDA-MB-435
  GI50: > 100 µM (inactive)
NCI-H23
  GI50: > 100 µM (inactive)
U-251
  GI50: > 100 µM (inactive)
LOX IMVI
  GI50: > 100 µM (inactive)
A498
  GI50: > 100 µM (inactive)
ACHN
  GI50: > 100 µM (inactive)
SF-268
  GI50: > 100 µM (inactive)
SNB-19
  GI50: > 100 µM (inactive)
SK-OV-3
  GI50: > 100 µM (inactive)
PC-3
  GI50: > 100 µM (inactive)
UACC-257
  GI50: > 100 µM (inactive)
SR
  GI50: > 100 µM (inactive)
OVCAR-3
  GI50: > 100 µM (inactive)
HCT-116
  GI50: > 100 µM (inactive)
CCRF-CEM
  GI50: > 100 µM (inactive)
SW-620
  GI50: > 100 µM (inactive)
SNB-75
  GI50: > 100 µM (inactive)
T47D
  GI50: > 100 µM (inactive)
OVCAR-5
  GI50: > 100 µM (inactive)
OVCAR-8
  GI50: > 100 µM (inactive)
MCF7
  GI50: > 100 µM (inactive)
Malme-3M
  GI50: > 100 µM (inactive)
UO-31
  GI50: > 100 µM (inactive)
SN12C
  GI50: > 100 µM (inactive)
TK-10
  GI50: > 100 µM (inactive)
HL-60
  GI50: > 10 µM (inactive)
IGROV-1
  GI50: > 100 µM (inactive)
EKVX
  GI50: > 100 µM (inactive)
CAKI-1
  GI50: > 100 µM (inactive)
HT-29
  GI50: > 100 µM (inactive)
MDA-N
  GI50: > 100 µM (inactive)
HCC 2998
  GI50: > 100 µM (inactive)
COLO 205
  GI50: > 100 µM (inactive)
NCI/ADR-RES
  GI50: > 100 µM (inactive)
M14
  GI50: > 100 µM (inactive)
NCI-H226
  GI50: > 100 µM (inactive)
RPMI-8226
  GI50: > 100 µM (inactive)

## CCN(CC)CCCNc1c2c(Cl)cc(Cl)cc2nc2nc(O)nc(C)c12
K562
  GI50: 44.1 µM (inactive)
HCT-15
  GI50: > 100 µM
OVCAR-4
  GI50: 33.9 µM (inactive)
SF-295
  GI50: 59.8 µM (inactive)
786-0
  GI50: 18.7 µM (inactive)
KM12
  GI50: 15.7 µM (inactive)
SK-MEL-5
  GI50: 65.9 µM (inactive)
DU-145
  GI50: > 100 µM (inactive)
SK-MEL-28
  GI50: 30.6 µM (inactive)
A549
  GI50: 42.9 µM (inactive)
MOLT-4
  GI50: 20.7 µM (inactive)
UACC-62
  GI50: 68.2 µM (inactive)
RXF 393
  GI50: > 100 µM (inactive)
SF-539
  GI50: > 100 µM (inactive)
HOP-62
  GI50: 23.2 µM (inactive)
SK-MEL-2
  GI50: 27.5 µM (inactive)
NCI-H522
  GI50: 21.6 µM (inactive)
BT-549
  GI50: 84.5 µM (inactive)
Hs-578T
  GI50: 47.5 µM (inactive)
NCI-H460
  GI50: 20.2 µM (inactive)
HOP-92
  GI50: 57.3 µM (inactive)
MDA-MB-231
  GI50: 18.5 µM (inactive)
MDA-MB-435
  GI50: 21.3 µM (inactive)
NCI-H23
  GI50: 55.8 µM (inactive)
U-251
  GI50: 17.3 µM (inactive)
LOX IMVI
  GI50: 23.1 µM (inactive)
A498
  GI50: > 100 µM (inactive)
ACHN
  GI50: > 100 µM (inactive)
SF-268
  GI50: 23 µM (inactive)
SNB-19
  GI50: 19.5 µM (inactive)
SK-OV-3
  GI50: 25.6 µM (inactive)
PC-3
  GI50: 30.7 µM (inactive)
UACC-257
  GI50: 43 µM (inactive)
SR
  GI50: > 10 µM (inactive)
OVCAR-3
  GI50: 77.6 µM (inactive)
HCT-116
  GI50: 17.1 µM (inactive)
CCRF-CEM
  GI50: 34.5 µM (inactive)
SW-620
  GI50: 17.8 µM (inactive)
T47D
  GI50: > 100 µM (inactive)
OVCAR-5
  GI50: 19.9 µM (inactive)
OVCAR-8
  GI50: > 10 µM (inactive)
MCF7
  GI50: 23.3 µM (inactive)
Malme-3M
  GI50: 41.6 µM (inactive)
UO-31
  GI50: > 100 µM (inactive)
SN12C
  GI50: 25.3 µM (inactive)
TK-10
  GI50: > 100 µM (inactive)
HL-60
  GI50: 57.4 µM (inactive)
IGROV-1
  GI50: 35.6 µM (inactive)
EKVX
  GI50: > 100 µM (inactive)
CAKI-1
  GI50: > 100 µM (inactive)
HT-29
  GI50: 18 µM (inactive)
MDA-N
  GI50: 18.6 µM (inactive)
HCC 2998
  GI50: 21.5 µM (inactive)
COLO 205
  GI50: 45.3 µM (inactive)
NCI/ADR-RES
  GI50: > 100 µM (inactive)
M14
  GI50: 26.4 µM (inactive)
NCI-H226
  GI50: 55.2 µM (inactive)
RPMI-8226
  GI50: > 10 µM (inactive)
